For 29 compounds, IC50, Emax and melting point results are on record in patent publication US9873702B2, “Heterocyclic compounds as biogenic amine transport modulators” (Southern Research Institute, priority 2014, dated 2018).

As usually defined, the IC50 is the midpoint of a concentration-inhibition curve. Usually Emax stands for the maximal effect, on the per cent scale that the assay sets. As a reminder, the melting point is the temperature, or range, at which the solid turns liquid.

The target of data set [1] is dopamine transporter (DAT) (Rattus norvegicus, UniProt P23977). Description: Dopamine reuptake ([^3H]dopamine uptake) inhibition in rat brain synaptosomes. Particulars: for IC50: DA Uptake EC50 (nM ± SD), rat caudate synaptosomes, 5 nM [^3H]dopamine, 15 min, 25° C., three experiments pooled; for Emax: read-out: DA Uptake Emax (% I ± SD).
Sequence of dopamine transporter (DAT) (P23977 whole entry): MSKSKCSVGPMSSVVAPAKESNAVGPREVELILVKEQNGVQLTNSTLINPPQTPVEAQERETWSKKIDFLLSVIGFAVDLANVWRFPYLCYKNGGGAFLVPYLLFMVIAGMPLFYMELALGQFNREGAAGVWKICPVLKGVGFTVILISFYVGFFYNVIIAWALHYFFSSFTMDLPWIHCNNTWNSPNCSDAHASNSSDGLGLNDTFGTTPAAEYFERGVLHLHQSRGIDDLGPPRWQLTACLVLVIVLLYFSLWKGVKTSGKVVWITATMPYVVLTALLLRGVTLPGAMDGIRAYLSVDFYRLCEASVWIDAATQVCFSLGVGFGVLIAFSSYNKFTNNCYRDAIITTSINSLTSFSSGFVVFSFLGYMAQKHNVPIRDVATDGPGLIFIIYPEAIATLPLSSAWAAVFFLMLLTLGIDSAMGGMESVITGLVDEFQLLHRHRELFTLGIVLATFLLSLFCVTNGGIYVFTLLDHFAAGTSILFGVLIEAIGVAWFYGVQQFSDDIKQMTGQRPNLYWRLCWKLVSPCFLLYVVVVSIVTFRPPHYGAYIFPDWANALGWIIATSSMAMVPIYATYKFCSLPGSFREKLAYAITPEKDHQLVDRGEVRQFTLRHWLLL
Description: Freshly removed caudate was homogenized in 10% ice-cold sucrose with 12 strokes of a hand-held Potter-Elvehj em homogenizer followed by centrifugation at 1000×g for 10 min. The supernatants were saved on ice and used immediately. Transporter activity was assessed using 5 nM [^3H]dopamine. […] The selectivity of the uptake assay for dopamine active transporter (DAT) was optimized by including 100 nM citalopram and 100 nM desipramine as blockers of serotonin transporter (SERT) and norepinephrine transporter (NET) in the sucrose solution and assay buffer. Uptake inhibition assays were conducted at 25° C. and were initiated by adding 100 μl of tissue to 900 μL assay buffer containing test drug and [^3H]dopamine. Test drugs were diluted in assay buffer containing 1 mg/mL bovine serum albumin. Nonspecific uptake was measured by incubating in the presence of 10 μM indatraline. The reactions were stopped after 15 minutes by rapid vacuum filtration with a cell harvester (BRANDEL) over GF/B filters (Whatman) presoaked in wash buffer maintained at 25° C. (10 mM Tris-HCl, pH 7.4/150 mM NaCl). Filters were rinsed with 6 mL wash buffer and retained tritium was quantified by a MicroBeta liquid scintillation counter (PerkinElmer) after overnight extraction in 0.6 mL of liquid scintillation cocktail (Cytoscint, ICN). The data from three experiments were pooled and fit to a dose-response curve equation (using Kaleidagraph), to yield an Emax and EC50 value.
The data from three experiments were pooled and fit to a dose-response curve equation (using KaleidaGraph; Synergy Software, Reading, Pa.) to yield an Emax and IC50 value.

On to `Cn1cnc2ccc(-c3nc(NCC(c4ccccc4)c4ccccc4)c4ccccc4n3)cc21` [compound 64, N-(2,2-Diphenylethyl)-2-(1-Methyl-1H-Benzo [D]Imidazol-6-yl)Quinazolin-4-Amine], for which the melting point is 248 °C. In addition, in data set [1], half-maximal inhibition (IC50) required 19 ± 3 nM and the maximal effect (Emax) turned out to be 75 ± 2%.

With `Cc1cc2nccn2cc1-c1nc(NCC(c2ccncc2)c2ccc[nH]2)c2ccccc2n1` (stereo not drawn) [compound 185, 2-(7-Methylimidazo[1,2-A]Pyridin-6-yl)-N-(2-(Pyridin-4-yl)-2-(1H-Pyrrol-2-yl)Ethyl)Quinazolin-4-Amine], the melting point lay in the range of 214 to 216 °C. Further, in data set [1], half-maximal inhibition (IC50) required 11 ± 2 nM and the maximal response (Emax) is 71 ± 2%.

As to `Nc1ccc(-c2nc(NCC(c3ccccc3)c3ccccc3)c3ccccc3n2)cn1` [compound 88, 2-(6-Aminopyridin-3-yl)-N-(2,2-Diphenylethyl)Quinazolin-4-Amine], the melting point was determined as 86 °C. For the same compound, in data set [1], the IC50 is 41 ± 13 nM and the maximal effect (Emax) is 86 ± 5%.

Regarding `c1ccc(C(CNc2nc(-c3ccc4ncnn4c3)nc3ccccc23)c2cccnc2)cc1` (stereo not drawn) [compound 132, 2-([1,2,4]Triazolo[1,5-a]pyridin-6-yl)-N-(2-phenyl-2-(pyridin-3-yl)ethyl)quinazolin-4-amine], the melting point is over 250 °C. In data set [1], the half-maximal inhibitory concentration (IC50) came out at 103 ± 26 nM and the Emax was found to be 55 ± 3%.

Consider `c1ccc(C(CNc2nc(-c3ccc4ncccc4c3)nc3ccccc23)c2ccccc2)cc1` [compound 50, N-(2,2-Diphenylethyl)-2-(Quinolin-6-yl)Quinazolin-4-Amine], for which the melting point stood at 92 °C. Besides, in data set [1], the half-inhibitory concentration (IC50) was 26 ± 7 nM and the maximal response (Emax) was determined as 68 ± 3%.

Take `Cc1cc2nccn2cc1-c1nc(NC(Cc2ccccc2)c2ccccc2)c2ccccc2n1` (stereo not drawn) [compound 172, N-(1,2-Diphenylethyl)-2-(7-Methylimidazo[1,2-A]Pyridin-6-yl)Quinazolin-4-Amine]: the melting point was in the range of 87 to 89 °C. Also, in data set [1], half-maximal inhibition (IC50) required 5 ± 1.1 nM and the Emax was 76 ± 2%.

In turn, `O=C(Nc1nc(-c2ccc3nccn3c2)nc2ccccc12)C(c1ccccc1)c1ccccc1` [compound 144, N-(2-(Imidazo[1,2-A]Pyridin-6-yl)Quinazolin-4-yl)-2,2-Diphenylacetamide] returned a melting point of 218 to 220 °C. For the same compound, in data set [1], half-maximal inhibition (IC50) required 160 ± 28 nM and the Emax worked out at 61 ± 2%.

Regarding `c1ccc(C(CNc2nc(-c3cnc4nccn4c3)nc3ccccc23)c2ncccn2)cc1` (stereo not drawn) [compound 109, 2-(Imidazo[1,2-A]Pyrimidin-6-yl)-N-(2-Phenyl-2-(Pyrimidin-2-yl)Ethyl)Quinazolin-4-Amine], the melting point amounted to 180 °C. In addition, in data set [1], inhibition was half-maximal at 377 ± 78 nM (IC50) and the Emax amounted to 57 ± 2%.

For the compound `c1ccc(C(CNc2nc(-c3ccc4cc[nH]c4c3)nc3ccccc23)c2ccccc2)cc1` [compound 31, N-(2,2-Diphenylethyl)-2-(1H-indol-6-yl)Quinazolin-4-Amine], the melting point turned out to be 102 °C. Besides, in data set [1], it took 89 ± 23 nM to reach half-maximal inhibition (IC50) and the maximal effect (Emax) was determined as 81 ± 4%.

`c1ccc(CCC(Nc2nc(-c3ccc4nccn4c3)nc3ccccc23)c2ccccc2)cc1` (stereo not drawn) [compound 166, N-(1,3-Diphenylpropyl)-2-(Imidazo[1,2-A]Pyridin-6-yl)Quinazolin-4-Amine] displayed a melting point of 190 to 192 °C. Further, in data set [1], half-maximal inhibition (IC50) required 42 ± 7 nM and the maximal effect (Emax) stood at 68 ± 2%.

Compound `CN(C)c1ccc(-c2nc(NC(c3ccccc3)c3ccccc3)c3ccccc3n2)cn1` [compound 92, N-Benzhydryl-2-(6-(Dimethylamino)Pyridin-3-yl)Quinazolin-4-Amine] came in with a melting point of 207 °C. Besides, in data set [1], it took 34 ± 5 nM to reach half-maximal inhibition (IC50) and the Emax stood at 68 ± 2%.

Compound `c1ccc(C(CNc2nc(-c3ccncc3)nc3ccccc23)c2ccccc2)cc1` [compound 39, N-(2,2-Diphenylethyl)-2-(Pyridin-4-yl)Quinazolin-4-Amine] registered a melting point of 242 °C. For the same compound, in data set [1], the midpoint of inhibition, the IC50, lay at 47 ± 6 nM and the Emax came out at 78 ± 2%.

Turning to `Cc1nc(C)c(-c2nc(NCC(c3ccccc3)c3ccccc3)c3ccccc3n2)s1` [compound 54, 2-(2,4-Dimethylthiazol-5-yl)-N-(2,2-Diphenylethyl)Quinazolin-4-Amine], the melting point is 78 °C. Further, in data set [1], the IC50 is 72 ± 12 nM and the maximal effect (Emax) came out at 80 ± 2%.

As to `c1ccc(C(CNc2nc(-c3ccc4nncn4c3)nc3ccccc23)c2ccccc2)cc1` [compound 114, 2-([1,2,4]Triazolo[4,3-A]Pyridin-6-yl)-N-(2,2-Diphenylethyl)Quinazolin-4-amine], the melting point turned out to be 224 °C. In addition, in data set [1], half-maximal inhibition (IC50) was put at 67 ± 7 nM and the Emax was 68 ± 1%.

The compound `Nc1ncc(-c2nc(NCC(c3ccccc3)c3ccccc3)c3ccccc3n2)cn1` [compound 44, 2-(2-Aminopyrimidin-5-yl)-N-(2,2-Diphenylethyl)Quinazolin-4-Amine] returned a melting point of 148 °C. In addition, in data set [1], the IC50 amounted to 79 ± 19 nM and the Emax was 81 ± 3%.

Take `c1ccc(C(CCNc2nc(-c3ccc4nccn4c3)nc3ccccc23)c2ccccc2)cc1` [compound 87, N-(3,3-Diphenylpropyl)-2-(Imidazo[1,2-A]Pyridin-6-yl)Quinazolin-4-Amine]: the melting point was found to be 237 °C. In data set [1], the 50% inhibitory concentration (IC50) was determined as 78 ± 9 nM and the Emax was 75 ± 1%.

As to `Cc1cc2nccn2cc1-c1nc(NCCc2ccncc2)c2ccccc2n1` [compound 181, 2-(7-Methylimidazo[1,2-A]Pyridin-6-yl)-N-(2-(Pyridin-4-yl)Ethyl)Quinazolin-4-Amine], the melting point lay in the range of 234 to 236 °C. In data set [1], the IC50 came out at 85 ± 5 nM and the maximum response (Emax) stood at 72 ± 1%.

Regarding `CC(C)(C)OC(=O)n1cnc2cc(-c3nc(NCC(c4ccccc4)c4ccccc4)c4ccccc4n3)ccc21` [compound 62, Tert-Butyl 5-(4-((2,2-Diphenylethyl)Amino)Quinazolin-2-yl)-1H-Benzo [D]Imidazole-1-Carboxylate], the melting point is 183 °C. In addition, in data set [1], the IC50 came out at 4210 nM and the Emax is under 100%.

In the case of `c1ccc(C(CNc2nc(-c3cccc4cccnc34)nc3ccccc23)c2ccccc2)cc1` [compound 141, N-(2,2-Diphenylethyl)-2-(Quinolin-8-yl)Quinazolin-4-Amine], the melting point fell in the range of 102 to 104 °C. In data set [1], half-maximal inhibition (IC50) required 45 ± 7 nM and the Emax was found to be 98 ± 3%.

`c1ccc(CC(CNc2nc(-c3ccc4nccn4c3)nc3ccccc23)c2ccccc2)cc1` (stereo not drawn) [compound 136, N-(2,3-Diphenylpropyl)-2-(imidazo[1,2-a]pyridin-6-yl)quinazolin-4-amine] came in with a melting point of 208 to 210 °C. In data set [1], the midpoint of inhibition, the IC50, lay at 34 ± 4 nM and the Emax came out at 78 ± 2%.

For `c1ccc(C(CNc2nc(-c3cc4ccccc4[nH]3)nc3ccccc23)c2ccccc2)cc1` [compound 42, N-(2,2-Diphenylethyl)-2-(1H-Indol-2-yl)Quinazolin-4-Amine], the melting point was 93 °C. Further, in data set [1], the 50% inhibitory concentration (IC50) was found to be 200 nM and the maximal effect (Emax) is under 100%.

Consider `CS(=O)(=O)Nc1ccc(-c2nc(NCC(c3ccccc3)c3ccccc3)c3ccccc3n2)cn1` [compound 138, N-(5-(4-((2,2-Diphenylethyl)Amino)Quinazolin-2-yl)Pyridin-2-yl)Methanesulfonamide], for which the melting point was determined as 210 °C. In data set [1], the IC50 was found to be 26 ± 3 nM and the Emax stood at 63 ± 1%.

Take `Cc1cc2nccn2cc1-c1nc(NCC(c2ccncc2)c2ccncc2)c2ccccc2n1` [compound 157, N-(2,2-Di(Pyridin-4-yl)Ethyl)-2-(7-Methylimidazo[1,2-A]Pyridin-6-yl)Quinazolin-4-Amine]: the melting point lay within 170 to 175 °C. Besides, in data set [1], 15 ± 3 nM corresponded to half-maximal inhibition (IC50) and the Emax was determined as 74 ± 2%.

In turn, `c1ccc(C(CNc2nc(-n3cccn3)nc3ccccc23)c2ccccc2)cc1` [compound 51, N-(2,2-Diphenylethyl)-2-(1H-Pyrazol-1-yl)Quinazolin-4-Amine] registered a melting point of 191 °C. In data set [1], the concentration for half-maximal inhibition (IC50) stood at 510 nM and the maximal response (Emax) is under 100%.

In the case of `c1ccc(C(CNc2nc(-c3ccc4scnc4c3)nc3ccccc23)c2ccccc2)cc1` [compound 145, 2-(Benzo[D]Thiazol-5-yl)-N-(2,2-Diphenylethyl)Quinazolin-4-amine], the melting point is 224 to 226 °C. Further, in data set [1], the midpoint of inhibition, the IC50, lay at 533 ± 89 nM and the Emax is 67 ± 2%.

`c1ccc(OC(CNc2nc(-c3ccc4nccn4c3)nc3ccccc23)c2ccccc2)cc1` (stereo not drawn) [compound 175, 2-(Imidazo[1,2-A]Pyridin-6-yl)-N-(2-Phenoxy-2-Phenylethyl)Quinazolin-4-Amine] showed a melting point of 286 to 288 °C. In addition, in data set [1], the IC50 amounted to 106 ± 19 nM and the Emax worked out at 68 ± 2%.

As to `COc1cc2nc(-c3cncnc3)nc(NCC(c3ccccc3)c3ccccc3)c2cc1OC` [compound 25, N-(2,2-Diphenylethyl)-6,7-Dimethoxy-2-(Pyrimidin-5-yl)Quinazolin-4-Amine], the melting point worked out at 93 °C. Further, in data set [1], the IC50 came to 1090 nM and the maximal response (Emax) was under 100%.

Compound `c1ccc(C(CNc2nc(-c3ccc4nccn4c3)nc3ccccc23)c2ccccn2)cc1` (stereo not drawn) [compound 94, 2-(Imidazo[1,2-A]Pyridin-6-yl)-N-(2-Phenyl-2-(Pyridin-2-yl)Ethyl)Quinazolin-4-Amine] came in with a melting point of 238 °C. Moreover, in data set [1], the IC50 is 36 ± 4 nM and the maximum response (Emax) is 69 ± 1%.

The compound `Cc1cc2nccn2cc1-c1nc(NCCc2cccnc2)c2ccccc2n1` [compound 180, 2-(7-Methylimidazo[1,2-A]Pyridin-6-yl)-N-(2-(Pyridin-3-yl)Ethyl)Quinazolin-4-Amine] showed a melting point of 241 to 244 °C. Besides, in data set [1], the 50% inhibitory concentration (IC50) was determined as 252 ± 22 nM and the Emax amounted to 73 ± 1%.
